Test results reported in patent publication US4401660A, “Ester derivatives of 5-O-mycaminosyl tylonolide and method of using same” (Eli Lilly and Company, priority 1981, dated 1983).

Legend:
Assay type in all cases: cell-based
Set-up in all cases: unit not given here
[1] = tested on: Haemophilus influenzae Holt; experiment: MIC, standard agar-dilution assay (Table II); conditions: ampicillin-sensitive strain
Protocol: (§1) The MIC's in Table II were determined by standard agar-dilution assays. The MIC's in Table III were obtained using a conventional broth-dilution microtiter test.

[2] = tested on: Haemophilus influenzae R252; experiment: MIC, standard agar-dilution assay (Table II); conditions: Haemophilus influenzae R252, ampicillin-resistant strain
Protocol: as §1

[3] = tested on: Staphylococcus aureus S13E; experiment: MIC, standard agar-dilution assay (Table II)
Protocol: as §1

[4] = tested on: Staphylococcus aureus V41; experiment: MIC, standard agar-dilution assay (Table II); conditions: Staphylococcus aureus V41, penicillin-resistant strain
Protocol: as §1

[5] = tested on: Staphylococcus aureus X1.1; experiment: MIC, standard agar-dilution assay (Table II)
Protocol: as §1

[6] = tested on: Staphylococcus aureus X400; experiment: MIC, standard agar-dilution assay (Table II); conditions: Staphylococcus aureus X400, methicillin-resistant strain
Protocol: as §1

[7] = tested on: Staphylococcus epidermidis EPI1; experiment: MIC, standard agar-dilution assay (Table II)
Protocol: as §1

[8] = tested on: Staphylococcus epidermidis EPI2; experiment: MIC, standard agar-dilution assay (Table II)
Protocol: as §1

[9] = tested on: Streptococcus Group D 9960; experiment: MIC, standard agar-dilution assay (Table II)
Protocol: as §1

[10] = tested on: Streptococcus Group D X66; experiment: MIC, standard agar-dilution assay (Table II)
Protocol: as §1

[11] = tested on: Streptococcus pneumoniae Park I; experiment: MIC, standard agar-dilution assay (Table II)
Protocol: as §1

[12] = tested on: Streptococcus pyogenes C203; experiment: MIC, standard agar-dilution assay (Table II)
Protocol: as §1

[13] = tested on: Mycoplasma gallisepticum; experiment: MIC, broth-dilution microtiter test (Table III)
Protocol: as §1

[14] = tested on: Mycoplasma hyorhinis; experiment: MIC, broth-dilution microtiter test (Table III)
Protocol: as §1

[15] = tested on: Mycoplasma synoviae; experiment: MIC, broth-dilution microtiter test (Table III)
Protocol: as §1

[16] = tested on: Pasteurella haemolytica 22C; experiment: MIC, broth-dilution microtiter test (Table III)
Protocol: as §1

[17] = tested on: Pasteurella haemolytica 23C; experiment: MIC, broth-dilution microtiter test (Table III)
Protocol: as §1

[18] = tested on: Pasteurella haemolytica 41D; experiment: MIC, broth-dilution microtiter test (Table III)
Protocol: as §1

[19] = tested on: Pasteurella multocida 17E; experiment: MIC, broth-dilution microtiter test (Table III); conditions: bovine isolate
Protocol: as §1

[20] = tested on: Pasteurella multocida 22A; experiment: MIC, broth-dilution microtiter test (Table III)
Protocol: as §1

[21] = tested on: Pasteurella multocida 40G; experiment: MIC, broth-dilution microtiter test (Table III)
Protocol: as §1

[22] = tested on: Pasteurella multocida 60A; experiment: MIC, broth-dilution microtiter test (Table III); conditions: avian isolate
Protocol: as §1

[23] = tested on: Pasteurella multocida 68C; experiment: MIC, broth-dilution microtiter test (Table III)
Protocol: as §1

[24] = tested on: Staphylococcus aureus; experiment: MIC, broth-dilution microtiter test (Table III)
Protocol: as §1

[25] = tested on: Streptococcus sp. 80; experiment: MIC, broth-dilution microtiter test (Table III)
Protocol: as §1

Row | Structure (SMILES) | minimal inhibitory concentration (MIC) [3] | minimal inhibitory concentration (MIC) [4] | minimal inhibitory concentration (MIC) [5] | minimal inhibitory concentration (MIC) [6] | minimal inhibitory concentration (MIC) [7] | minimal inhibitory concentration (MIC) [8] | minimal inhibitory concentration (MIC) [9] | minimal inhibitory concentration (MIC) [10] | minimal inhibitory concentration (MIC) [11] | minimal inhibitory concentration (MIC) [12] | minimal inhibitory concentration (MIC) [13] | minimal inhibitory concentration (MIC) [14] | minimal inhibitory concentration (MIC) [15] | minimal inhibitory concentration (MIC) [16] | minimal inhibitory concentration (MIC) [17] | minimal inhibitory concentration (MIC) [18] | minimal inhibitory concentration (MIC) [19] | minimal inhibitory concentration (MIC) [20] | minimal inhibitory concentration (MIC) [21] | minimal inhibitory concentration (MIC) [22] | other results
1 | CCC(=O)OC1C(OC2C(CC=O)CC(C)C(=O)C=CC(C)=CC(CO)C(CC)OC(=O)CC(O)C2C)OC(C)C(O)C1N(C)C (stereo not shown) [Compound 2, 2'-O-Propionyl-OMT] | 2 | 4 | 2 | 4 | 1 | 1 | 2 | 2 | 8 | 0.5 | 0.39 | 3.12 | 0.78 | 12.5 | 12.5 | 12.5 | 3.12 | 3.12 | 6.25 | 1.56 | minimal inhibitory concentration (MIC) [1]: 4; minimal inhibitory concentration (MIC) [2]: 4; minimal inhibitory concentration (MIC) [23]: 3.12; minimal inhibitory concentration (MIC) [24]: 3.12; minimal inhibitory concentration (MIC) [25]: < 0.78
2 | CCC1OC(=O)CC(O)C(C)C(OC2OC(C)C(OC(=O)c3ccccc3)C(N(C)C)C2OC(=O)c2ccccc2)C(CC=O)CC(C)C(=O)C=CC(C)=CC1CO (stereo not shown) [Compound 5, 2',4'-Di-O-benzoyl-OMT] | 32 | 32 | 8 | 64 | 8 | 4 | 8 | 8 | 0.5 | 2 | 12.5 | 50 | 12.5 | > 50 | > 50 | > 50 | 50 | > 50 | 50 | 50 | minimal inhibitory concentration (MIC) [1]: 64; minimal inhibitory concentration (MIC) [2]: 64; minimal inhibitory concentration (MIC) [23]: 25; minimal inhibitory concentration (MIC) [24]: 6.25; minimal inhibitory concentration (MIC) [25]: 3.12
3 | CCC1OC(=O)CC(O)C(C)C(OC2OC(C)C(OC(=O)CC(C)C)C(N(C)C)C2OC(C)=O)C(CC=O)CC(C)C(=O)C=CC(C)=CC1COC(=O)CC(C)C (stereo not shown) [Compound 50, 2'-O-Acetyl-4',23-di-O-isovaleryl-OMT] | 1 | 2 | 1 | 2 | 1 | 1 | 1 | 1 | 0.5 | 1 | 0.195 | 6.25 | 1.56 | 25 | 25 | 25 | 12.5 | 25 | 3.12 | 6.25 | minimal inhibitory concentration (MIC) [23]: 6.25; minimal inhibitory concentration (MIC) [24]: 0.39; minimal inhibitory concentration (MIC) [25]: 0.39
4 | CCC1OC(=O)CC(O)C(C)C(OC2OC(C)C(OC(=O)CC(C)C)C(N(C)C)C2OC(C)=O)C(CC=O)CC(C)C(=O)C=CC(C)=CC1COC(C)=O (stereo not shown) [Compound 51, 2',23-Di-O-Acetyl-4'-O-isovaleryl-OMT] | 0.5 | 1 | 1 | 1 | 0.5 | 1 | 1 | 1 | 0.125 | 0.25 | < 0.05 | 6.25 | 0.78 | 3.12 | 3.12 | 3.12 | 3.12 | 6.25 | 3.12 | 3.12 | minimal inhibitory concentration (MIC) [23]: 3.12; minimal inhibitory concentration (MIC) [24]: 0.78; minimal inhibitory concentration (MIC) [25]: 0.78
5 | CCC1OC(=O)CC(O)C(C)C(OC2OC(C)C(O)C(N(C)C)C2OC(=O)Cc2ccccc2)C(CC=O)CC(C)C(=O)C=CC(C)=CC1COC(=O)Cc1ccccc1 (stereo not shown) [Compound 53, 2',23-Di-O-Phenylacetyl-OMT] | 0.25 | 0.25 | 0.25 | 0.25 | 0.25 | 0.25 | 0.25 | 0.25 | 0.03 | 0.06 | < 0.05 | 3.12 | < 0.05 | 3.12 | 3.12 | 3.12 | 1.56 | 1.56 | 1.56 | 1.56 | minimal inhibitory concentration (MIC) [1]: 1; minimal inhibitory concentration (MIC) [2]: 1; minimal inhibitory concentration (MIC) [23]: 0.78; minimal inhibitory concentration (MIC) [24]: 0.195; minimal inhibitory concentration (MIC) [25]: < 0.05
6 | CCC1OC(=O)CC(O)C(C)C(OC2OC(C)C(O)C(N(C)C)C2OC(C)=O)C(CC=O)CC(C)C(=O)C=CC(C)=CC1COC(=O)C(Cl)(Cl)Cl (stereo not shown) [Compound 77] | 1 | 2 | 1 | 2 | 1 | 2 | 1 | 1 | 0.25 | 0.25 | 0.78 | 3.12 | 0.78 | 12.5 | 12.5 | 12.5 | 3.12 | 50 | 25 | 3.12 | minimal inhibitory concentration (MIC) [2]: 1; minimal inhibitory concentration (MIC) [23]: 25; minimal inhibitory concentration (MIC) [24]: 1.56; minimal inhibitory concentration (MIC) [25]: 0.78
